Assay results published in patent US20080249077A1, “17.Beta.-Fluoromethoxycarbonyl-Androst-4-En-3-One Compounds With a 17.Alpha.-Carbonate Sustituent” (priority 2005, published 2008).

Key:
glucocorticoid receptor [1] = target: T1, glucocorticoid receptor (Homo sapiens, UniProt P04150); assay: Assay for transrepression activity of the glucocorticoid agonists (NF-κB responsive ELAM promoter-sPAP reporter, TNF-stimulated A549 cells); format: cell-based; conditions: compound 1 hour at 37° C., then TNF 10 ng/ml for 16 hours, read-out: pIC50 (transrepression) (converted)
T1 construct: A549 cells stably transfected with a reporter gene; endogenous in cells; host or cells: A549 cells
T1 sequence (P04150 1-777): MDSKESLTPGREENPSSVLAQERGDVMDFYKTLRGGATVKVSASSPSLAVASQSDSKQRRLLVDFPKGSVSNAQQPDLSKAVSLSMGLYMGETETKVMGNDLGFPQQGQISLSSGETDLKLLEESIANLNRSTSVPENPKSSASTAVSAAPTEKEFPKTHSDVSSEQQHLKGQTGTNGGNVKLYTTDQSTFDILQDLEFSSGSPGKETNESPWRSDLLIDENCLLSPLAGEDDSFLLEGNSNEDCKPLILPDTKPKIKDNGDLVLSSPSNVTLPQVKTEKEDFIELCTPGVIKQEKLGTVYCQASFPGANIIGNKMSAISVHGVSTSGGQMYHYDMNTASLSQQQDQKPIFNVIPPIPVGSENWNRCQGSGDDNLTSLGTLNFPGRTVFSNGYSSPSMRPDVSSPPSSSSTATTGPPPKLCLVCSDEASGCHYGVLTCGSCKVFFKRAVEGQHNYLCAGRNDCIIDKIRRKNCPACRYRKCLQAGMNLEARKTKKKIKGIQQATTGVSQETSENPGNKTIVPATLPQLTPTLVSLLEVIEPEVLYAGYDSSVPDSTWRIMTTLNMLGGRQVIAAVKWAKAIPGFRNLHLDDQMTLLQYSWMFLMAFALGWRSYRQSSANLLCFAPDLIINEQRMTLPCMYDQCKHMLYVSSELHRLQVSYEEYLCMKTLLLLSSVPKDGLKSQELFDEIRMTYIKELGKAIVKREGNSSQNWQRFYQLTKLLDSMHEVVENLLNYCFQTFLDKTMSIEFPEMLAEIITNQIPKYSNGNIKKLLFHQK
Experimental: Assay for Transrepression Activity of the Glucocorticoid Agonists
A549 cells stably transfected with a reporter gene containing the NF-κB responsive elements from the ELAM gene promoter coupled to sPAP (secreted alkaline phosphatase) are treated with test compounds at appropriate doses for 1 hour at 37° C. The cells are then stimulated with tumour necrosis factor (TNF, 10 ng/ml) for 16 hours, at which time the amount of alkaline phosphatase produced is measured by a standard colourimetric assay. Dose response curves were constructed from which EC50 values were estimated.

glucocorticoid receptor [2] = target: T1, glucocorticoid receptor; assay: Assay for transactivation activity of the glucocorticoid agonists (MMTV-LTR renilla luciferase reporter in A549 cells); format: cell-based; conditions: compound 6 hour at 37° C., read-out: maximal response relative to Dexamethasone (100%) (transactivation)
Experimental: Assay for Transactivation Activity of the Glucocorticoid Agonists
The functional assay based on that described by R. J. H. Austin et al., Eur Resp J. (2002), 20, 1386-1392 measures the ability of compounds to directly transactivate gene expression. A549 cells stably transfected with a reporter gene containing the glucocorticoid responsive region of the mouse mammary tumour virus long terminal repeat (MMTV-LTR) coupled to renilla luciferase were treated with test compounds at appropriate doses for 6 hour at 37° C. The amount of luciferase activity present within the cells is then determined by measuring the light emitted following incubation with a suitable substrate. Dose response curves were constructed from which EC50 values were estimated and from which maximal responses are calculated relative to Dexamethasone (100%).

| Structure (SMILES) | IC50 (glucocorticoid receptor [1]) [nM] | Emax (glucocorticoid receptor [2]) [%] |
| --- | --- | --- |
| C[C@@H]1C[C@H]2[C@@H]3C[C@H](F)C4=CC(=O)C=C[C@]4(C)[C@@]3(F)[C@@H](O)C[C@]2(C)[C@@]1(OC(=O)OC1CCCC(C)(C)C1)C(=O)OCF (single isomer, unassigned) [Example 19A, Fluoromethyl(6α,11β,16α,17α)-17-({[(3,3-dimethylcyclohexyl)oxy]carbonyl}oxy)-6,9-difluoro-11-hydroxy-16-methyl-3-oxoandrosta-1,4-diene-17-carboxylate] | < 0.1 | – |
| CC(OC(=O)O[C@]1(C(=O)OCF)[C@H](C)C[C@H]2[C@@H]3C[C@H](F)C4=CC(=O)C=C[C@]4(C)[C@@]3(F)[C@@H](O)C[C@@]21C)C(C)(C)C (single isomer, unassigned) [Example 23A, Fluoromethyl(6α,11β,16α,17α)-6,9-difluoro-11-hydroxy-16-methyl-3-oxo-17-({[(1,2,2-trimethylpropyl)oxy]carbonyl}oxy)androsta-14-diene-17-carboxylate] | < 0.1 | – |
| C[C@@H]1C[C@H]2[C@@H]3C[C@H](F)C4=CC(=O)C=C[C@]4(C)[C@@]3(F)[C@@H](O)C[C@]2(C)[C@@]1(OC(=O)OC(C)(C)C)C(=O)OCF [Example 1, Fluoromethyl(6α,11β,16α,17α)-17-({[(1,1-dimethylethyl)oxy]carbony}oxy)-6,9-difluoro-11-hydroxy-16-methyl-3-oxoandrosta-1,4-diene-17-carboxylate] | < 0.1 | < 25 |
| CCC(CC)COC(=O)O[C@]1(C(=O)OCF)[C@H](C)C[C@H]2[C@@H]3C[C@H](F)C4=CC(=O)C=C[C@]4(C)[C@@]3(F)[C@@H](O)C[C@@]21C [Example 6, Fluoromethyl(6α,11β,16α,17α)-17-({[(2-ethylbutyl)oxy]carbonyl}oxy)-6,9-difluoro-11-hydroxy-16-methyl-3-oxoandrosta-1,4-diene-17-carboxylate] | < 0.1 | < 25 |
| CC(C)C(C)OC(=O)O[C@]1(C(=O)OCF)[C@H](C)C[C@H]2[C@@H]3C[C@H](F)C4=CC(=O)C=C[C@]4(C)[C@@]3(F)[C@@H](O)C[C@@]21C (stereo partly drawn) [Example 9, Fluoromethyl(6α,11β,16α,17α)-17-({[(1,2-dimethylpropyl)oxy]carbonyl}oxy)-6,9-difluoro-11-hydroxy-16-methyl-3-oxoandrosta-1,4-diene-17-carboxylate] | < 0.1 | < 25 |
| C[C@@H]1C[C@H]2[C@@H]3C[C@H](F)C4=CC(=O)C=C[C@]4(C)[C@@]3(F)[C@@H](O)C[C@]2(C)[C@@]1(OC(=O)OCC1CCCC1)C(=O)OCF [Example 15, Fluoromethyl(6α,11β,16α,17α)-17-({[(cyclopentylmethyl)oxy]carbonyl}oxy)-6,9-difluoro-11-hydroxy-16-methyl-3-oxoandrosta-1,4-diene-17-carboxylate] | < 0.1 | < 25 |
| CC(OC(=O)O[C@]1(C(=O)OCF)[C@H](C)C[C@H]2[C@@H]3C[C@H](F)C4=CC(=O)C=C[C@]4(C)[C@@]3(F)[C@@H](O)C[C@@]21C)C1CCCC1 (stereo partly drawn) [Example 21A, Fluoromethyl(6α,11β,16α,17α)-17-({[(1-cyclopentylethyl)oxy]carbonyl}oxy)-6,9-difluoro-11-hydroxy-16-methyl-3-oxoandrosta-1,4-diene-17-carboxylate] | < 0.1 | – |
| CCCC(OC(=O)O[C@]1(C(=O)OCF)[C@H](C)C[C@H]2[C@@H]3C[C@H](F)C4=CC(=O)C=C[C@]4(C)[C@@]3(F)[C@@H](O)C[C@@]21C)C(C)C (stereo partly drawn) [Example 25, Fluoromethyl(6α,11β,16α,17α)-6,9-difluoro-11-hydroxy-16-methyl-17-[({[1-(1-methylethyl)butyl]oxy}carbonyl)oxy]-3-oxoandrosta-1,4-diene-17-carboxylate] | – | < 25 |
| C[C@@H]1C[C@H]2[C@@H]3C[C@H](F)C4=CC(=O)C=C[C@]4(C)[C@@]3(F)[C@@H](O)C[C@]2(C)[C@@]1(OC(=O)OC1C(C)(C)C1(C)C)C(=O)OCF [Example 26, Fluoromethyl(6α,11β,16α,17α)-6,9-difluoro-11-hydroxy-16-methyl-3-oxo-17-({[(2,2,3,3-tetramethylcyclopropyl)oxy]carbonyl}oxy)androsta-1,4-diene-17-carboxylate] | – | < 25 |
| C[C@@H]1C[C@H]2[C@@H]3C[C@H](F)C4=CC(=O)C=C[C@]4(C)[C@@]3(F)[C@@H](O)C[C@]2(C)[C@@]1(OC(=O)O[C@@H]1C[C@@H]2CC[C@@]1(C)C2(C)C)C(=O)OCF [Example 27, Fluoromethyl(6α,11β,16α,17α)-6,9-difluoro-11-hydroxy-16-methyl-3-oxo-17-[({[(1S,2R,4S)-1.7.7-trimethylbicyclo[2.2.1]hept-2-yl]oxy}carbonyl)oxy]androsta-1,4-diene-17-carboxylate] | – | < 25 |
| C[C@@H]1C[C@H]2[C@@H]3C[C@H](F)C4=CC(=O)C=C[C@]4(C)[C@@]3(F)[C@@H](O)C[C@]2(C)[C@@]1(OC(=O)O[C@H]1C[C@H]2CC[C@]1(C)C2(C)C)C(=O)OCF [Example 28, Fluoromethyl(6α,11β,16α,17α)-6,9-difluoro-11-hydroxy-16-methyl-3-oxo-17-[({[(1R,2S,4R)-1,7,7-trimethylbicyclo[2.2.1]hept-2-yl]oxy}carbonyl)oxy]androsta-1,4-diene-17-carboxylate] | – | < 25 |
| CC1CC2C3CC(F)C4=CC(=O)C=CC4(C)C3(F)C(O)CC2(C)C1(OC(=O)OC1CC2CCC1(C)C2(C)C)C(=O)OCF [Example 29, Fluoromethyl(6α,11β,16α,17α)-6,9-difluoro-11-hydroxy-16-methyl-3-oxo-17-[({[(1R,2R,4R)-1,7,7-trimethylbicyclo[2.2.1]hept-2-yl]oxy}carbonyl)oxy]androsta-1,4-diene-17-carboxylate] | – | < 25 |
| C[C@@H]1C[C@H]2[C@@H]3C[C@H](F)C4=CC(=O)C=C[C@]4(C)[C@@]3(F)[C@@H](O)C[C@]2(C)[C@@]1(OC(=O)OC1CCCC1)C(=O)OCF [Example 31, Fluoromethyl(6α,11β,16α,17α)-17-{[(cyclopentyloxy)carbonyl]oxy}-6,9-difluoro-11-hydroxy-16-methyl-3-oxoandrosta-1,4-diene-17-carboxylate] | – | < 25 |
| C[C@@H]1C[C@H]2[C@@H]3C[C@H](F)C4=CC(=O)C=C[C@]4(C)[C@@]3(F)[C@@H](O)C[C@]2(C)[C@@]1(OC(=O)O[C@H]1C(C)(C)[C@H]2CC[C@]1(C)C2)C(=O)OCF [Example 33, Fluoromethyl(6α,11β,16α,17α)-6,9-difluoro-11-hydroxy-16-methyl-3-oxo-17-[({[(1R,2R,4S)-1,3,3-trimethylbicyclo[2.2.1]hept-2-yl]oxy}carbonyl)oxy]androsta-1,4-diene-17-carboxylate] | – | < 25 |
